The values below come from patent US11324680B2, “Topical compositions” (priority 2017, dated 2022).

The experiment relates to Propionibacterium acnes. The experiment can be described thus: Antimicrobial efficacy in analogy to challenge test NF EN ISO11930, protection against acne. The settings on record: 24 h; for Log reduction: Propionibacterium acnes; for Propionibacterium acnes colony count: 22° C., initial contamination 310000 cfu/ml. It counts as cell-based.

Protocol: The antimicrobial efficacy is assessed in analogy to the regulatory challenge test method (NF EN ISO11930). Thus, solutions of the respective active(s) in ethanol are prepared and further dissolved in physiological serum with 0.85 wt.-% NaCl in the concentrations as outlined in table 1 under sterile conditions. The samples were solubilized in physiological serum supplemented with 1 wt.-% ethanol. A control was prepared under sterile condition based on a serum with 0.85 wt.-% NaCl and 1 wt.-% ethanol (C1). […] The wells are contaminated resulting in the initial contamination as outlined in table 1. After the contamination, each well was thoroughly mixed to ensure a homogeneous distribution of bacteria. Then each plate was incubated at 22° C. for 24 h. The counting of the (remaining) population is carried out 24 h after contamination.

Consider `O=C(CO)[C@H](O)CO` (racemic) [erythrulose], for which, for the setting “single active at 0.1 wt.-%”, the Log reduction amounted to 2 and the “Propionibacterium acnes colony count” value turned out to be 3300 cfu/ml. Under “single active at 0.3 wt.-%”, the Log reduction worked out at 3.5 and the “Propionibacterium acnes colony count” value came to 100 cfu/ml.

On to `CCCCCCCC(=O)OCC(O)CO` (centres unmarked) [glyceryl caprylate, Glyceryl caprylate], for which, for the setting “single active at 0.2 wt.-%”, the Log reduction turned out to be 3 and the “Propionibacterium acnes colony count” value was found to be 260 cfu/ml. Besides, under “single active at 0.3 wt.-%”, the Log reduction was determined as 4.5 and the “Propionibacterium acnes colony count” value is on record as 10 cfu/ml.
